Experimental data: patent US20240124389A1, “COMPOUND OR SALT THEREOF, LIPID PARTICLES, AND PHARMACEUTICAL COMPOSITION” (FUJIFILM Corporation, priority 2021, published 2024)

Experiments:
[1] = Particle size of PTEN ASO-LNP; type: physicochemical; conditions: PTEN ASO lipid particles; aminolipid 50 / DSPC 20 / cholesterol 28.5 / monostearyl PEG 1.5 mol %; lipid/nucleic acid 11.8 wt/wt
Protocol: (§1) The first lipid, phospholipid, cholesterol, and polyethylene glycol lipid (PEG lipid) shown in Table 3 were dissolved in ethanol at the molar ratio shown in Table 3 such that the total lipid concentration was 20 mmol/L to obtain the oil phase.
(§2) As the neutral lipid, 1,2-Distearoyl-sn-glycero-3-phosphocholine (DSPC, product name: COATSOME MC-8080, NOF corporation) was used. As the cholesterol, cholesterol (product name: Cholesterol HP; Nippon Seika Co., Ltd.) was used. As the PEG lipid, monostearyl PEG (product name: Polyethylene Glycol Monostearate (4E.O.), FUJIFILM Wako Pure Chemical Corporation) was used.
(§3) 5 mg of PTEN ASO was dissolved in 1 mL of sterile water and diluted with a 10 mmol/L acetate buffer having a pH of 4 such that the nucleic acid concentration was 54.6 μmol/L, to obtain a water phase. Then the water phase and the oil phase were mixed together with a micromixer (see JP5288254B) using a syringe pump such that the volume ratio of water phase:oil phase was 3:1, and the mixed solution was two-fold diluted with a phosphate buffered physiological saline (PBS), thereby obtaining a dispersion of nucleic acid lipid particles.
The particle size and polydispersion index of the lipid particles were measured by 10-fold diluting the dispersion liquid of lipid particle with phosphate buffered physiological saline (PBS) using Zeta-potential & Particle size Analyzer ELS-Z2 (Otsuka Electronics Co., Ltd.).

PTEN ASO = test: Encapsulation rate of PTEN ASO in lipid particles; type: physicochemical; conditions: aminolipid 50 / DSPC 20 / cholesterol 28.5 / monostearyl PEG 1.5 mol %, lipid/nucleic acid 11.8 wt/wt
Protocol: as §1, §2, §3
30 μL of 3 mol/L aqueous sodium acetate solution and 9 μL of glycogen were added to 60 μL of the lipid particles retaining nucleic acids, and then 1.5 mL of ethanol was added thereto, so that only the nucleic acids were precipitated while the lipid was dissolved. Then, the supernatant was removed by centrifugation. The precipitates were air-dried for 15 minutes or longer, then water was added thereto to redissolve the precipitates, and the concentration thereof was measured using Nanodrop ND1000 (Thermo Fisher Scientific), thereby quantifying the total nucleic acid concentration.
The mRNA concentration was quantified using a Quant-iT RiboGreen RNA Assay Kit (Thermo Fisher Scientific) according to the protocol. First, a 20×TE buffer included in the above-described kit was diluted with water, thereby obtaining a 1×TE buffer. TE represents Tris/EDTA (ethylenediaminetetraacetic acid). In order to quantify only the nucleic acid in the outer water phase, the dispersion liquid of lipid particles retaining nucleic acids was 10,000-fold diluted with the 1×TE buffer.
100 μL of the 10,000-fold diluted dispersion liquid of lipid particles was put into a 96-well plate, then 100 μL of a RiboGreen reagent (reagent included in the Quanti-iT Ribogreen RNA Assay Kit described above) 2,000-fold diluted with the 1×TE buffer was added to a sample, and fluorescence (excitation wavelength: 485 nm, fluorescence wavelength: 535 nm) was measured using a plate reader Infinite F200 (TECAN), thereby quantifying the nucleic acid concentration in the outer water phase.
By using the quantification results of the total nucleic acid concentration and the nucleic acid concentration in the outer water phase that were obtained through the above steps, the nucleic acid encapsulation rate of the nucleic acid lipid particles was calculated according to the following Equation.
Nucleic acid encapsulation rate (%)=(total nucleic acid concentration—nucleic acid concentration in outer water phase)/total nucleic acid concentration×100

PTEN mRNA = PTEN mRNA knockdown in vitro (quantification of PTEN mRNA by PCR); type: cell-based, human; conditions: SH-SY5Y cells; PTEN ASO lipid particles of Table 3, ASO 500 nmol/L, exposure 24 hours; PTEN mRNA by ΔΔCt method
From the text: An antisense oligonucleotide nucleic acid (PTEN ASO) for a PTEN protein was purchased from Hokkaido System Science Co., Ltd. PTEN ASO is an oligonucleotide consisting of 20 bases, in which nucleotides are connected by a phosphodiester bond, and the sequence of which is described below.
In an in vitro test using SH-SY5Y cells (American Type Culture Collection), E-MEM (gibco), Ham's F12 (gibco), FBS (gibco), Penicillin-streptomycin (gibco), and NEAA (FUJIFILM Wako Pure Chemical Corporation) were mixed at a ratio of 41.5:41.5:15:1:1 and the mixture was used as a culture medium.
The measurement of PTEN protein mRNA was performed according to the protocol of TaqMan (register trademark) Fast Advanced Cells-to-CT™ Kit (Thermo Fisher Scientific). To A431 cells or SH-SY5Y cells, a dispersion liquid of nucleic acid lipid particles prepared to have a final concentration of 500 nmol/L as an ASO concentration, Naked ASO or PBS was added. After exposure for 24 hours under the control of 37° C. and 5% CO2, the culture supernatant was removed, and the mixture was washed once with PBS at 4° C. After removing the PBS, a lysis solution was added at 50 μL/well, and the mixture was stood still for 5 minutes at room temperature to obtain a cell lysate. For the cell lysate, TaqMan (register trademark) Fast Advanced Cells-to-CT™ Kit (Thermo Fisher scientific), and Hs02621230_s1, FAM/MGB (Thermo Fisher Scientific) and Human GAPDH Endogenous Control (VIC (register trademark)/MGB, Thermo Fisher Scientific) as a PCR reaction reagent were used to perform reverse transcription and PCR reaction.
The PTEN mRNA level of each sample was calculated by the ΔΔCt method. Specifically, the Ct value of GAPDH is subtracted from the Ct value of PTEN to calculate the ΔCt value of each sample. The average value of the ΔCt values of the PBS treatment group was subtracted from the calculated ΔCt value to calculate the ΔΔCt value. For each ΔΔCt value, a relative value with respect to the Naked ASO to be compared was taken as a PTEN mRNA relative value.

Particle size [1] [nm] | Nucleic acid encapsulation rate (PTEN ASO) [%] | SMILES | PTEN knockdown relative value with respect to Naked ASO (PTEN mRNA)
58.6 | 92 | CCCCCCCOC(=O)CCCC(CCCC(=O)OCCCCCCC)OC(=O)OCCN(CCOC(=O)OC(CCCC(=O)OCCCCCC)CCCC(=O)OCCCCCC)CCN(CC)CC [Example 37, 1-Heptyl 21-hexyl 11-(2-(diethylamino)ethyl)-5-(4-(heptyloxy)-4-oxobutyl)-17-(4-(hexyloxy)-4-oxobutyl)-7,15-d ioxo-6,8,14,16-tetraoxa-11-azahenicosanedioate] | 0.83
104.3 | 92 | CCCCCCCOC(=O)CCCC(CCCC(=O)OCCCCCCC)OC(=O)OCCN(CCOC(=O)OC(CCCC(=O)OCCCCCCC)CCCC(=O)OCCCCCCC)CCN(CC)CC [Example 29, diheptyl 11-(2-(diethylamino)ethyl)-5,17-bis(4-(heptyloxy)-4-oxobutyl)-7,15-dioxo-6,8,14,16-tetraoxa-11-azahenicosanedioate] | 0.80
60.4 | 97 | CCCCCCC(CCCC(=O)OCC(CCCCC)CCCCC)OC(=O)OCCN(CCCN(CC)CC)CCOC(=O)OC(CCCCCC)CCCC(=O)OCC(CCCCC)CCCCC (stereo not drawn) [Example 13, Bis(2-pentylheptyl) 11-(3-(diethylamino)propyl)-5,17-dihexyl-7,15-dioxo-6,8,14,16-tetraoxa-11-azahenicosanedio ate] | 0.34
81.5 | 96 | CCCCCC(CCCCC)COC(=O)CCCC(CCC)OC(=O)OCCN(CCOC(=O)OC(CCC)CCCC(=O)OCC(CCCCC)CCCCC)CCN(CC)CC (stereo not drawn) [Example 21, Bis(2-pentylheptyl) 11-(2-(diethylamino)ethyl)-7,15-dioxo-5,17-dipropyl-6,8,14,16-tetraoxa-11-azahenicosanedioate] | 0.33
87.7 | 93 | CCCCCCC(CCCC)COC(=O)CCCC(CCCCCC)OC(=O)OCCN(CCOC(=O)OC(CCCCCC)CCCC(=O)OCC(CCCC)CCCCCC)CCN(CC)CC (stereo not drawn) [Example 8, Bis(2-butyloctyl) 11-(2-(diethylamino)ethyl)-5,17-dihexyl-7,15-dioxo-6,8,14,16-tetraoxa-11-azahenicosanedioate] | 0.65
